Molecules are shown by their SMILES. Where “and” joins values, the source holds several entries; their conditions need not be identical. Equal entries are not always repeated.

Five molecules from patent US20150113683A1, “METHODS FOR PLANT TRANSFORMATION USING SPECTINOMYCIN SELECTION” (Monsanto Technology LLC, priority 2007, published 2015) can be followed below.

In assay [1] the test system is soybean explants. As to the kind of experiment: BAP during co-culture and post co-culture delay: rooted plants and TF, spectinomycin selection. It is filed as cell-based, soybean (Glycine max). The following applies: 150 mg/L spectinomycin selection. As for the experimental part: Soybean explants were inoculated and co-cultured with Agrobacterium harboring pMON96999 (FIG. 2). The inoculation and co-culture medium were supplemented with 0, 1, 2, 3, 4 or 5 mg/L BAP. […] The explants were then transferred onto selection medium (the same as the delay medium but containing 150 mg/L spectinomycin) for shoot induction and selection. […] To determine how many explants could develop transformed shoots without BAP treatment, explant tissues were assayed for GUS activity at 42 days after inoculation. […] Most of them were axillary, and some of them were apparently chimeric. The explants treated with BAP had much less or non-elongated primary shoots, and more de novo shoots. Many of the shoots elongated on the selection medium and were harvested to induce roots on the root induction medium also containing 150 mg/L spectinomycin as in protocol “A”.

In assay [2] the test system is soybean explants. Put plainly: BAP or TDZ for 4 days after co-cultivation: GFP-positive bud development, dicamba selection. It is filed as cell-based, soybean (Glycine max). The following applies: for # Explants w/ GFP+ buds / % Explants w/ GFP+ buds: 0.01 mg/L dicamba selection, 24 DAI; for effect on final transformation frequencies (TFs): addition of cytokinin with dicamba selection.

The test system of a further assay is dry soybean explants. Put plainly: Transformation frequency of dry soybean explants using glyphosate or spectinomycin as selective agent. The following applies: Glyphosate 50 uM in regeneration medium; dry soybean explants. It is filed as cell-based.
For assay [3], the system named is soybean explants. Put plainly: TDZ in inoculation/co-culture medium: shoots harvested and transformed rooted shoots, glyphosate selection. It is filed as cell-based, soybean (Glycine max).
The subject of assay [4] is soybean explants. As to the kind of experiment: TDZ during inoculation/co-cultivation: GFP-positive bud/shoot development, glyphosate selection. The following applies: for # Explants with GFP+ buds/shoots: 200 explants examined. It is filed as cell-based, soybean (Glycine max).
Assay [5] concerns soybean explants. As to the kind of experiment: TDZ during inoculation and co-culture: development of GUS-positive buds. It is filed as cell-based, soybean (Glycine max). As to conditions: for # Explants w/ GUS+ buds (13 DAI): 96 explants assayed.
The subject of assay [6] is 3 months stored dry soybean explants. Put plainly: Stored dry soybean explants, spectinomycin, pre-culture: TF. It is filed as cell-based. As to conditions: nystatin 50 ppm and thiabendazole 10 ppm dissolved in DMSO added together to INO co-culture media.
The mark [7] stands for this setting: BAP 1 mg/L in co-culture & 4-d post co-culture delay medium.
The mark [8] stands for this setting: BAP 2 mg/L in co-culture & 4-d post co-culture delay medium.
[9] abbreviates: BAP 3 mg/L in co-culture & 4-d post co-culture delay medium.
Where [10] appears, read: BAP 4 mg/L in co-culture & 4-d post co-culture delay medium.
Setting [11] is: BAP 5 mg/L in co-culture & 4-d post co-culture delay medium.
[12] abbreviates: 1 mg/L for 4 days after co-cultivation.
The mark [13] stands for this setting: 2 mg/L for 4 days after co-cultivation.
[14] abbreviates: TDZ 0.5 mg/L in inoculation and co-cultivation medium.
[15] abbreviates: TDZ 1.0 mg/L in inoculation and co-cultivation medium.
Setting [16] is: TDZ 1.5 mg/L in inoculation and co-cultivation medium.
Setting [17] is: TDZ 2.0 mg/L in inoculation and co-cultivation medium.
[18] abbreviates: TDZ 3.0 mg/L in inoculation and co-cultivation medium.
Setting [19] is: TDZ 1 mg/L for inoculation/co-culture, glyphosate selection.
[20] abbreviates: TDZ 2 mg/L for inoculation/co-culture, glyphosate selection.
Where [21] appears, read: TDZ 3 mg/L for inoculation/co-culture, glyphosate selection.
Where [22] appears, read: TDZ 0.5 mg/L for inoculation & co-culture.
The mark [23] stands for this setting: TDZ 1.0 mg/L for inoculation & co-culture.
Where [24] appears, read: TDZ 2.0 mg/L for inoculation & co-culture.

Regarding `c1ccc(CNc2ncnc3nc[nH]c23)cc1` [BAP, 6-Benzylaminopurine], the “# Rooted plants” value is reported as 103 with soybean explants [1] (setting [7]); 94 with soybean explants [1] (setting [8]); 87 in the assay with soybean explants [1] (setting [9]); 132 with soybean explants [1] (setting [10]); 116 in the assay on soybean explants [1] (setting [11]). The “% TF” value is 26.1% with soybean explants [1] (setting [7]); 27.1% with soybean explants [1] (setting [8]); 24.9% with soybean explants [1] (setting [9]); 30.3% in the assay on soybean explants [1] (setting [10]); 26.6% in the assay on soybean explants [1] (setting [11]). Besides, the “# Explants w/ GFP+ buds” value in the assay with soybean explants [2] (setting [12]) was 12; in the assay on soybean explants [2] (setting [13]), 11. The “% Explants w/ GFP+ buds” value in the assay with soybean explants [2] (setting [12]) was 3.7%; in the assay with soybean explants [2] (setting [13]) it was 3.3%. In addition, the “effect on final transformation frequencies (TFs)” value in the assay with soybean explants [2] is given as “no visible effect”.

On to `O=C(O)CNCP(=O)(O)O` [Glyphosate, glyphosate], for which, in the assay with dry soybean explants, the “% TF” value amounted to 2.00%. The molecule also registered a transformation frequency with soybean explants [3] (comparable experiments utilizing glyphosate as selective agent) of approximately 2%.

In the case of `O=C(Nc1ccccc1)Nc1cnns1` [TDZ, thidiazuron], the “Frequency of explants with GFP+ buds/shoots” value in the assay with soybean explants [4] (setting [14]) turned out to be 18%; in the assay on soybean explants [4] (setting [15]) it was 24%; in the assay with soybean explants [4] (setting [16]) it was 25%; in the assay with soybean explants [4] (setting [17]), 30%; in the assay with soybean explants [4] (setting [18]) it was 32%. For the same molecule, the “# Explants with GFP+ buds/shoots” value in the assay with soybean explants [4] (setting [14]) was 36; in the assay on soybean explants [4] (setting [15]) it was 48; in the assay with soybean explants [4] (setting [16]), 50; with soybean explants [4] (setting [17]), 60; in the assay on soybean explants [4] (setting [18]) it was 64. The “% Transformed rooted shoots” value is 1.1% and 1.4% and 4.3% in the assay on soybean explants [3] (TDZ 0.5 mg/L for inoculation/co-culture, glyphosate selection); 1.3% and 1.6% and 0.5% and 3.2% and 1% in the assay on soybean explants [3] (setting [19]); 0.1% and 1.3% and 0.9% and 0.5% with soybean explants [3] (setting [20]); 0.6% and 0.7% in the assay on soybean explants [3] (setting [21]). In addition, the “Shoots harvested, % Shooting Frequency” value in the assay on soybean explants [3] (setting [19]) is 4.9% and 7% and 3.5% and 13% and 6.8%; in the assay with soybean explants [3] (setting [20]), 1.4% and 4.9% and 5.1% and 6.7% and 1.9%; in the assay with soybean explants [3] (setting [21]) it was 4.7% and 1.9%. Besides, in the assay with soybean explants [3] (setting [21]), the “Rooted shoots, Total #” value was 5 and 8. Moreover, in the assay with soybean explants [3] (setting [21]), the “Shoots harvested, Total #” value is 40 and 20. In addition, the “# Explants w/ GFP+ buds” value with soybean explants [2] (setting [12]) was determined as 71; in the assay on soybean explants [2] (setting [13]), 53. Besides, the “% Explants w/ GFP+ buds” value in the assay with soybean explants [2] (setting [12]) was 18.3%; with soybean explants [2] (setting [13]) it was 13.8%. In the assay with soybean explants [2], the “effect on final transformation frequencies (TFs)” value was “no visible effect”. Besides, the “% Explants with GUS+ buds (13 DAI)” value in the assay with soybean explants [5] (setting [22]) amounted to 18.8%; in the assay on soybean explants [5] (setting [23]), 35.4%; in the assay on soybean explants [5] (setting [24]) it was 50.0%. Also, the “# Explants w/ GUS+ buds (13 DAI)” value is 18 in the assay with soybean explants [5] (setting [22]), 34 with soybean explants [5] (setting [23]) and 48 with soybean explants [5] (setting [24]).

In the case of `C[C@@H]1[C@H](O)[C@@H](C)/C=C/C=C/CC/C=C/C=C/C=C/C=C/C(O[C@H]2O[C@H](C)[C@@H](O)[C@H](N)[C@@H]2O)CC2O[C@](O)(CC(O)C(O)CCC(O)CC(O)CC(O)CC(=O)O[C@H]1C)CC(O)C2C(=O)O` (stereo partly shown) [nystatin], the health of explants result in assay [6] is “improved the health of explants”.

As for `c1ccc2[nH]c(-c3cscn3)nc2c1` [thiabendazole], the health of explants entry in assay [6] is reported as “improved the health of explants”.
